In patent US20240226228A1, “ANTIMICROBIAL PEPTOID HAVING IMPROVED SELECTIVITY AND ANTIMICROBIAL COMPOSITION COMPRISING SAME” (priority 2021, published 2024):
≈ marks a conversion by molar mass, not a printed value. Read-outs that look alike come from different tables or passages of the source. *1 amine or outer side, *2 acyl side, *3 side chain or, on linkers, in order; H or OH if unused. Where a SMILES comes first, the peptide text is derived from it. Where no end group is shown, it is not given here. [ ]: non-standard residue; d: D form. Gly(N(CH2)2(3-indolyl)) = O=C(O)CNCCc1c[nH]c2ccccc12; Gly(N-CH2CH2-imidazol-4-yl) = O=C(O)CNCCc1c[nH]cn1; Nspe = C[C@H](NCC(=O)O)c1ccccc1; X1 = O=C(CN(CCCCO)[*:1])[*:2]; Nlys = NCCCCNCC(=O)O

Columns and labels:
S. aureus ATCC 25923 = tested on: S. aureus ATCC 25923
Description: (§1) To measure the antimicrobial activity of the peptoids synthesized in Example 1, an E. coli ATCC25922 strain as gram-negative bacteria and an S. aureus KCTC25923 strain as gram-positive bacteris, were treated with the peptoids, followed by measuring the minimum inhibitory concentration (MIC). Peptoids 1 and 2 are antimicrobial peptoids known in the art, and used as controls for comparing antimicrobial activity with a novel peptoid.
(§2) Specifically, the S. aureus KCTC25923 or E. coli ATCC25922 strain was inoculated into a Mueller Hinton Broth (MHB2) liquid medium in which cations had been adjusted in the medium, cultured at 37° C. for 18 hours, subcultured, and then incubated for 4 hours. Afterward, for each bacterial strain, an optical density (OD, 0.001) was adjusted so that the bacterial count became 2×10^5 to 5×10^5 colony-forming units (CFU) per mL, which was then diluted with a MHB2 liquid medium containing 0.02% bovine serum albumin and 0.001% acetic acid, and dispensed at 100 μL into a 96-well microplate. Using sterile water, a peptoid stock 40 times stronger than a concentration to be tested was subjected to two-fold serial dilution and assessed at six different concentrations, and the maximum value of the peptoid concentrations was 25 μM. Subsequently, the plate was incubated at 37° C. for 24 hours. Afterward, optical density (OD) values at 600 nm were measured using a microplate reader (Bio-Rad).
(§3) Each MIC value was determined as the average value of a value obtained through three independent experiments.
(§4) Referring to Table 22, to measure the antimicrobial activity of the peptoids synthesized in Example 3, an MIC was measured by treating gram-negative bacteria, that is, the E. coli ATCC25922 strain, and gram-positive bacteria, that is, the S. aureus ATCC25923 strain, with the peptoids. Here, Peptoid 1 is a conventionally known antimicrobial peptoid, and Omiganan is a derivative of indolicidin, which is an antimicrobial peptide, under clinical development, and was used as a control for comparing antimicrobial activity with the novel peptoid.

red blood cells = assay: Hemolysis assay; assay type: cell-based, Sprague-Dawley mouse
Description: To confirm cytotoxicity by the hemolytic activity of each peptoid synthesized in Example 1, hemolysis analysis was performed. The used blood was collected from a 13-week-old male Sprague-Dawley […] in a tube containing 158 UPS sodium heparin for preventing coagulation, and centrifuged at 4° C. for 10 minutes at 1,000 rpm. Afterward, the plasma was carefully removed, red blood cells were washed with phosphate-buffered saline (PBS: a mixed solution of 35 mM phosphate-buffered solution/150 mM NaCl, pH 7.4) three times and centrifuged at 1,000 rpm for 10 minutes. A 10% (v/v) red blood cell solution diluted in PBS was dispensed at 150 μL into a 96-well plate (microtiter plate), a peptoid solution was added at 50 μL, and 1% Triton X-100 was added. Afterward, the red blood cells were incubated at 37° C. for 1 hour, and the incubated 96-well plate was centrifuged at 1,000 rpm for 15 minutes. A supernatant was obtained and transferred to a new 96-well plate at 150 μL, and absorbance was measured using a spectrophotometer at 540 nm. Percent hemolysis may be calculated by the following Equation 1, and the corresponding results are shown in Tables 11 to 13. % Hemolysis=(A−C)/(B−C)×100 [Equation 1] In Equation 1, A is the absorbance of the peptoid solution at 540 nm, B is the absorbance of the 0.1% Triton X-100 at 540 nm, and C is the absorbance of the PBS solution at 540 nm.

E. coli ATCC25922 = conditions: for antimicrobial activity (in words): E. coli and S. aureus, compared to Peptoid 1, parent peptoid or TFA salt as stated
Description: as §1, §2, §3, §4

[1] = Tables 11-13, 24 hours at 37° C., maximum concentration 25 μM

C[C@@H](c1ccccc1)N(CC(N)=O)C(=O)CN(CCCCN)C(=O)CN(C(=O)CN(C(=O)CN(CCCCN)C(=O)CN(C(=O)CN(C(=O)CN(CCCCN)C(=O)CN(C(=O)CN(CCCCN)C(=O)CNCCCCN)[C@@H](C)c1ccccc1)[C@@H](C)c1ccccc1)[C@@H](C)c1ccccc1)[C@@H](C)c1ccccc1)[C@@H](C)c1ccccc1 [Peptoid 49] was tested, and the “MIC S. aureus ATCC 25923” value (S. aureus ATCC 25923; [1]) was >25 µM, the HC10 (red blood cells) was >100/>100 μM and the HC50 (red blood cells) was >100/>100 μM. For the same molecule, the “Hmax (100 μM)” value (red blood cells) was 0.3 ± 0.3%.
C[C@@H](c1ccccc1)N(CC(=O)N(CCCCN)CC(=O)N(CC(=O)N(CC(=O)N(CCCCN)CC(=O)N(CC(=O)N(CC(=O)N(CCCCN)CC(=O)N(CCCCN)CC(N)=O)[C@@H](C)c1ccccc1)[C@@H](C)c1ccccc1)[C@@H](C)c1ccccc1)[C@@H](C)c1ccccc1)C(=O)CN(C(=O)CNCCCCN)[C@@H](C)c1ccccc1 [Peptoid 52] (H-[Nlys][Nspe][Nspe][Nlys][Nspe][Nspe][Nlys][Nspe][Nspe][Nlys][Nlys]-NH2) was tested, and the “MIC S. aureus ATCC 25923” value (S. aureus ATCC 25923; [1]) was >25 µM.
NC(=O)CN(CCc1c[nH]c2ccccc12)C(=O)CN(CCc1c[nH]c2ccccc12)C(=O)CN(CCCCO)C(=O)CN(CCc1c[nH]c2ccccc12)C(=O)CN(CCc1c[nH]c2ccccc12)C(=O)CN(CCCCO)C(=O)CN(CCc1c[nH]c2ccccc12)C(=O)CN(CCc1c[nH]c2ccccc12)C(=O)CN(CCCCO)C(=O)CN(CCc1c[nH]c2ccccc12)C(=O)CN(CCc1c[nH]c2ccccc12)C(=O)CNCCCCO [Peptoid 65] (H-[X1][Gly(N(CH2)2(3-indolyl))][Gly(N(CH2)2(3-indolyl))][X1][Gly(N(CH2)2(3-indolyl))][Gly(N(CH2)2(3-indolyl))][X1][Gly(N(CH2)2(3-indolyl))][Gly(N(CH2)2(3-indolyl))][X1][Gly(N(CH2)2(3-indolyl))][Gly(N(CH2)2(3-indolyl))]-NH2) was tested, and the “MIC E. coli ATCC25922” value (E. coli ATCC25922; [1]) was >25 µM and the “MIC S. aureus ATCC 25923” value (S. aureus ATCC 25923; [1]) was >25 µM.
For C[C@@H](c1ccccc1)N(CC(=O)N(CCCCO)CC(=O)N(CCc1c[nH]c2ccccc12)CC(=O)N(CCc1c[nH]c2ccccc12)CC(N)=O)C(=O)CN(CCCCO)C(=O)CN(CCCCO)C(=O)CN(C(=O)CN(C(=O)CN(CCCCO)C(=O)CN(C(=O)CN(C(=O)CNCCCCO)[C@@H](C)c1ccccc1)[C@@H](C)c1ccccc1)[C@@H](C)c1ccccc1)[C@@H](C)c1ccccc1 [Peptoid 66], the “MIC E. coli ATCC25922” value (E. coli ATCC25922; [1]) was >25 µM and the “MIC S. aureus ATCC 25923” value (S. aureus ATCC 25923; [1]) was >25 µM.
With C[C@@H](c1ccccc1)N(CC(N)=O)C(=O)CN(CCCCN)C(=O)CN(CCCCN)C(=O)CN(C(=O)CN(C(=O)CN(CCCCN)C(=O)CN(C(=O)CN(CCc1c[nH]cn1)C(=O)CN(CCCCN)C(=O)CN(CCc1c[nH]c2ccccc12)C(=O)CN(CCc1c[nH]c2ccccc12)C(=O)CNCCCCN)[C@@H](C)c1ccccc1)[C@@H](C)c1ccccc1)[C@@H](C)c1ccccc1 [Peptoid 67] (H-[Nlys][Gly(N(CH2)2(3-indolyl))][Gly(N(CH2)2(3-indolyl))][Nlys][Gly(N-CH2CH2-imidazol-4-yl)][Nspe][Nlys][Nspe][Nspe][Nlys][Nlys][Nspe]-NH2) the “MIC E. coli ATCC25922” value (E. coli ATCC25922; ATCC25922) was >25 µM and the “MIC S. aureus ATCC 25923” value (S. aureus ATCC 25923; ATCC 25923) was 25 µM (≈ 46.4 µg/mL).
In the case of C[C@@H](c1ccccc1)N(CC(N)=O)C(=O)CN(CCCCN)C(=O)CN(CCCCN)C(=O)CN(C(=O)CN(C(=O)CN(CCCCN)C(=O)CN(CCc1c[nH]cn1)C(=O)CN(C(=O)CN(CCCCN)C(=O)CN(CCc1c[nH]c2ccccc12)C(=O)CN(CCc1c[nH]c2ccccc12)C(=O)CNCCCCN)[C@@H](C)c1ccccc1)[C@@H](C)c1ccccc1)[C@@H](C)c1ccccc1 [Peptoid 68] (H-[Nlys][Gly(N(CH2)2(3-indolyl))][Gly(N(CH2)2(3-indolyl))][Nlys][Nspe][Gly(N-CH2CH2-imidazol-4-yl)][Nlys][Nspe][Nspe][Nlys][Nlys][Nspe]-NH2), the “MIC E. coli ATCC25922” value (E. coli ATCC25922; ATCC25922) was >25 µM and the “MIC S. aureus ATCC 25923” value (S. aureus ATCC 25923; ATCC 25923) was 25 µM (≈ 46.4 µg/mL).
In the case of C[C@@H](c1ccccc1)N(CC(N)=O)C(=O)CN(CCCCN)C(=O)CN(CCCCN)C(=O)CN(C(=O)CN(CCc1c[nH]cn1)C(=O)CN(CCCCN)C(=O)CN(C(=O)CN(C(=O)CN(CCCCN)C(=O)CN(CCc1c[nH]c2ccccc12)C(=O)CN(CCc1c[nH]c2ccccc12)C(=O)CNCCCCN)[C@@H](C)c1ccccc1)[C@@H](C)c1ccccc1)[C@@H](C)c1ccccc1 [Peptoid 69] (H-[Nlys][Gly(N(CH2)2(3-indolyl))][Gly(N(CH2)2(3-indolyl))][Nlys][Nspe][Nspe][Nlys][Gly(N-CH2CH2-imidazol-4-yl)][Nspe][Nlys][Nlys][Nspe]-NH2), the “MIC E. coli ATCC25922” value (E. coli ATCC25922; ATCC25922) was 25 µM (≈ 46.4 µg/mL) and the “MIC S. aureus ATCC 25923” value (S. aureus ATCC 25923; ATCC 25923) was 25 µM (≈ 46.4 µg/mL).
In the case of C[C@@H](c1ccccc1)N(CC(=O)N(CCCCN)CC(=O)N(CCc1c[nH]c2ccccc12)CC(=O)N(CCc1c[nH]c2ccccc12)CC(N)=O)C(=O)CN(CCCCN)C(=O)CN(CCc1c[nH]cn1)C(=O)CN(C(=O)CN(C(=O)CN(CCCCN)C(=O)CN(C(=O)CN(C(=O)CNCCCCN)[C@@H](C)c1ccccc1)[C@@H](C)c1ccccc1)[C@@H](C)c1ccccc1)[C@@H](C)c1ccccc1 [Peptoid 79, H-NLys-Nspe-Nspe-NLys-Nspe-Nspe-NHis-NLys-Nspe-NLys-NhTrp-NhTrp-NH2] (H-[Nlys][Nspe][Nspe][Nlys][Nspe][Nspe][Gly(N-CH2CH2-imidazol-4-yl)][Nlys][Nspe][Nlys][Gly(N(CH2)2(3-indolyl))][Gly(N(CH2)2(3-indolyl))]-NH2), the “antimicrobial activity (in words)” value (E. coli ATCC25922) was “retained antimicrobial activity” and the “cytotoxicity against red blood cells / hemolysis (in words)” value (red blood cells) was “improved in toxicity”.
With C[C@@H](c1ccccc1)N(CC(=O)N(CCCCN)CC(=O)N(CCc1c[nH]c2ccccc12)CC(=O)N(CCc1c[nH]c2ccccc12)CC(N)=O)C(=O)CN(CCCCN)C(=O)CN(CCCCN)C(=O)CN(C(=O)CN(C(=O)CN(CCc1c[nH]cn1)C(=O)CN(C(=O)CN(C(=O)CNCCCCN)[C@@H](C)c1ccccc1)[C@@H](C)c1ccccc1)[C@@H](C)c1ccccc1)[C@@H](C)c1ccccc1 [Peptoid 80, H-NLys-Nspe-Nspe-NHis-Nspe-Nspe-NLys-NLys-Nspe-NLys-NhTrp-NhTrp-NH2] (H-[Nlys][Nspe][Nspe][Gly(N-CH2CH2-imidazol-4-yl)][Nspe][Nspe][Nlys][Nlys][Nspe][Nlys][Gly(N(CH2)2(3-indolyl))][Gly(N(CH2)2(3-indolyl))]-NH2) the “antimicrobial activity (in words)” value (E. coli ATCC25922) was “reduced antimicrobial activity” and the “cytotoxicity against red blood cells / hemolysis (in words)” value (red blood cells) was “improved toxicity”.
C[C@@H](c1ccccc1)N(CC(=O)N(CCCCN)CC(=O)N(CCc1c[nH]c2ccccc12)CC(=O)N(CCc1c[nH]c2ccccc12)CC(N)=O)C(=O)CN(CCCCN)C(=O)CN(CCCCN)C(=O)CN(C(=O)CN(C(=O)CN(CCCCN)C(=O)CN(C(=O)CN(C(=O)CNCCc1c[nH]cn1)[C@@H](C)c1ccccc1)[C@@H](C)c1ccccc1)[C@@H](C)c1ccccc1)[C@@H](C)c1ccccc1 [Peptoid 81, H-NHis-Nspe-Nspe-NLys-Nspe-Nspe-NLys-NLys-Nspe-NLys-NhTrp-NhTrp-NH2] (H-[Gly(N-CH2CH2-imidazol-4-yl)][Nspe][Nspe][Nlys][Nspe][Nspe][Nlys][Nlys][Nspe][Nlys][Gly(N(CH2)2(3-indolyl))][Gly(N(CH2)2(3-indolyl))]-NH2) was tested, and the “antimicrobial activity (in words)” value (E. coli ATCC25922) was “retained antimicrobial activity” and the “cytotoxicity against red blood cells / hemolysis (in words)” value (red blood cells) was “improved in toxicity”.
With “ILRWPWWPWRRK-NH2 [Omiganan, reference compound]” the “MIC E. coli ATCC25922” value (E. coli ATCC25922; ATCC25922) was 12.5~25 μM and the “Hmax (100 μM)” value (red blood cells) was 0.
